Data on 10 compounds can be found in ChEMBL document CHEMBL1141672, “Novel bradykinin-1 antagonists containing a (1,2,3,4-tetrahydro-isoquinolin-1-yl)acetic acid scaffold” (Eur J Med Chem, 2008).

One test deals with T1, B1 bradykinin receptor (Homo sapiens, UniProt P46663).
T1 sequence (P46663 whole entry): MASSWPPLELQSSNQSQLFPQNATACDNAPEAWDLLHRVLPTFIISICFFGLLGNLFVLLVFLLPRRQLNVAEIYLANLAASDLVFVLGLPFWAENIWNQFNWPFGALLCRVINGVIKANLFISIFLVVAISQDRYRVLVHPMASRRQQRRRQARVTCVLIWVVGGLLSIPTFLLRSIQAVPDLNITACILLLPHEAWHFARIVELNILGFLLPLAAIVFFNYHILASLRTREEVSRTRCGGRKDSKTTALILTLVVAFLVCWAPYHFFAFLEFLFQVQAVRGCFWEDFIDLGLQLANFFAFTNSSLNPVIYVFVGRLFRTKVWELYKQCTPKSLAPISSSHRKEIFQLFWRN
As to the kind of experiment: Displacement of [3H]Lys-bradykinin from human recombinant bradykinin B1 receptor expressed in CHO cells by scintillation counting. In kind it is cell-based.
In general, Ki refers to a measure of affinity in units of concentration, obtained from inhibition or displacement. Consider `Cc1ccc(S(=O)(=O)N2CCc3ccccc3C2CC(=O)NCCc2ccc(C3=NCCN3)cc2)cc1` (racemic), for which the Ki was 67 nM.

As for `COc1cc2c(cc1OC)C(CC(=O)NCCc1ccc(C3=NCCN3)cc1)N(S(=O)(=O)c1ccc(C)cc1)CC2` (racemic), the Ki was found to be 2000 nM.

A further test has as its target T2, B1 bradykinin receptor (Homo sapiens) (UniProt P46663).
T2 sequence (whole entry): T1 sequence (P46663 whole entry)
As to the kind of experiment: Antagonist activity against human recombinant bradykinin B1 receptor expressed in CHO cells assessed as inhibition of [Lys-des-Arg9]bradykinin-induced cytoplasmic calcium release at 5 uM by fluorimetry. In kind it is functional, cell-based.
As usually defined, the inhibition is the share of the control response that was lost under treatment. For `Cc1ccc(S(=O)(=O)N2CCc3ccccc3C2CC(=O)NCCc2ccc(C3=NCCN3)cc2)cc1` (racemic), the inhibition was 99%. Same read-out and setting: the result for `COc1cc2c(cc1OC)C(CC(=O)NC1CCCCCC1)N(S(=O)(=O)c1ccc(C)cc1)CC2` (racemic) reads 9.3%; that for `Cc1ccc(S(=O)(=O)N2CCc3ccccc3C2CC(=O)NCCCCCCN)cc1` (racemic), 16.3%; that for `COc1cc2c(cc1OC)C(CC(=O)NCCc1ccc(C3=NCCN3)cc1)N(S(=O)(=O)c1ccc(C)cc1)CC2` (racemic), 85.7%. For `Cc1ccc(S(=O)(=O)N2CCc3ccccc3C2CC(=O)NC2CCCCCC2)cc1` (racemic), the inhibition was 37%. In the case of `COc1cc2c(cc1OC)C(CC(=O)NCCCCCCN)N(S(=O)(=O)c1ccc(C)cc1)CC2` (racemic), the inhibition was found to be 10.9%. The same measure, in the same setting: the result for `COc1cc2c(cc1OC)C(CC(=O)NCCCCNC(=N)N)N(S(=O)(=O)c1ccc(C)cc1)CC2` (racemic) reads 19%.

Turning to `Cc1ccc(S(=O)(=O)N2CCc3ccccc3C2CC(=O)NCCCCN)cc1` (racemic), the inhibition was 15.9%. Still for that read-out and setting: as for `COc1cc2c(cc1OC)C(CC(=O)NCCCCN)N(S(=O)(=O)c1ccc(C)cc1)CC2` (racemic), the figure is 15.3%; as for `Cc1ccc(S(=O)(=O)N2CCc3ccccc3C2CC(=O)NCCCCNC(=N)N)cc1` (racemic), 44.9%.
